Consider 12 compounds from patent US20240059680A1, “N-(2,3-DIHYDRO-1,4-BENZOXAZIN-4-YL)-3-ISOPROPYL-7-(2,3,5-TRIFLUOROPHENYL)BENZO-THIOPHENE-2-CARBOXAMIDE DERIVATIVES AND SIMILAR COMPOUNDS FOR THE TREATMENT OF HEARTWORM INFECTIONS” (ELANCO TIERGESUNDHEIT AG, priority 2020, published 2024).

In brackets after ≈: the same amount, converted by molar mass. Like-named read-outs stand apart in the source and are kept apart here. A value given as a limit tells only on which side of the number the result lay.

By EC50 is commonly meant the midpoint of the concentration-response curve.

Experiment [1] has as its system Dirofilaria immitis third-stage larvae. In words: In Vitro Assay 4: Dirofilaria immitis (DIROIM L4) larval motility. Format: cell-based. To be noted: 72 h.
Experiment [2] deals with Dirofilaria immitis microfilariae. Kind of experiment: In Vitro Assay 3: Dirofilaria immitis microfilariae (DIROIM L1) motility. The experiment is classed as cell-based. To be noted: 72 h.
For another experiment, the target named is D. immitis Slo-1 (Dirofilaria immitis, UniProt I0DFK5). In words: In Vitro Assay 2: D. immitis Slo-1, membrane potential measurement in recombinant CHO cell line. The experiment is classed as cell-based.
Another experiment concerns the target C. elegans Slo-1a (Caenorhabditis elegans, UniProt Q95V25).
The subject of experiment [3] is Adult Nippostrongylus brasiliensis. In words: In Vitro Assay 5: Nippostrongylus brasiliensis (NIPOBR), acetylcholine esterase readout. Format: cell-based. The method, then:
In Vitro Assay 5: Nippostrongylus Brasiliensis (NIPOBR)
Adult Nippostrongylus brasiliensis were washed with saline buffer containing 100 U/ml penicillin, 0.1 mg/ml streptomycin and 2.5 μg/ml amphotericin B. Test compounds were dissolved in DMSO and worms were incubated in medium in a final concentration of 10 μg/ml (10 ppm), 1 μg/ml (1 ppm) and 0.1 μg/ml (0.1 ppm) respectively. An aliquot of the medium was used to determine the acetylcholine esterase activity in comparison to a negative control. The principle of measuring acetylcholine esterase as readout for anthelmintic activity was described in Rapson et al (1986) and Rapson et al (1987).
Based on the evaluation of a wide concentration range, concentration-response curves as well as EC50-values were calculated.

Where [4] appears, read: acetylcholine esterase activity in medium vs negative control, adult worms, read-out: EC50.

Sequence of C. elegans Slo-1a (Q95V25 whole entry): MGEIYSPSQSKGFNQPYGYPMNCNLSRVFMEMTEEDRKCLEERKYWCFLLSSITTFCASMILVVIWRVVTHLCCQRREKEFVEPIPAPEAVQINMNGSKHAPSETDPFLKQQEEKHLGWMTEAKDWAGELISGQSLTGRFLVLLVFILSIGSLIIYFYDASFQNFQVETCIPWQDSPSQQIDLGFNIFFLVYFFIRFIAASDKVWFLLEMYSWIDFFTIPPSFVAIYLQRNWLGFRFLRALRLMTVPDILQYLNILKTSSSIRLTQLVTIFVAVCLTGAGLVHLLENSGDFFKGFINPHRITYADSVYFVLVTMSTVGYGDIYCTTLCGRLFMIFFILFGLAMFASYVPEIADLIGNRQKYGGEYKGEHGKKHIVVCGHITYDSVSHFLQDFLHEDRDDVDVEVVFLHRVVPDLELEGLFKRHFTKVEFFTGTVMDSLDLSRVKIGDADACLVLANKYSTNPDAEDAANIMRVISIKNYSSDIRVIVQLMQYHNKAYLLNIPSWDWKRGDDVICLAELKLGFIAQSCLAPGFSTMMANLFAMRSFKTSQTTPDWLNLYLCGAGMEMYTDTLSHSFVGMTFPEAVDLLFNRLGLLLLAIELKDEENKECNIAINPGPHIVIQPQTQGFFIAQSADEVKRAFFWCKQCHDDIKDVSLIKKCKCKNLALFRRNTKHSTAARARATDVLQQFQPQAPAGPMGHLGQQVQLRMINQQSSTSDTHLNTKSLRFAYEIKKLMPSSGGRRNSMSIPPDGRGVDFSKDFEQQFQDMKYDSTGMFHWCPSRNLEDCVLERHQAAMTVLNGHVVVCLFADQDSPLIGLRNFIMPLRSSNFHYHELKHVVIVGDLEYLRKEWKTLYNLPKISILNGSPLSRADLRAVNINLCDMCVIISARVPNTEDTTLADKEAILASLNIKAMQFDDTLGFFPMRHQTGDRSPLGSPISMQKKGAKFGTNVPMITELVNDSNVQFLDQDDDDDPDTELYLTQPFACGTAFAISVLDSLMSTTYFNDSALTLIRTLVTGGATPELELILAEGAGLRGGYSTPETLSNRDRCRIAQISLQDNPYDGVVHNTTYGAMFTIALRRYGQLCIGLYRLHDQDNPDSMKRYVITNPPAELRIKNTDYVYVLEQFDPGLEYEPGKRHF
Sequence of D. immitis Slo-1 (I0DFK5 1-1119): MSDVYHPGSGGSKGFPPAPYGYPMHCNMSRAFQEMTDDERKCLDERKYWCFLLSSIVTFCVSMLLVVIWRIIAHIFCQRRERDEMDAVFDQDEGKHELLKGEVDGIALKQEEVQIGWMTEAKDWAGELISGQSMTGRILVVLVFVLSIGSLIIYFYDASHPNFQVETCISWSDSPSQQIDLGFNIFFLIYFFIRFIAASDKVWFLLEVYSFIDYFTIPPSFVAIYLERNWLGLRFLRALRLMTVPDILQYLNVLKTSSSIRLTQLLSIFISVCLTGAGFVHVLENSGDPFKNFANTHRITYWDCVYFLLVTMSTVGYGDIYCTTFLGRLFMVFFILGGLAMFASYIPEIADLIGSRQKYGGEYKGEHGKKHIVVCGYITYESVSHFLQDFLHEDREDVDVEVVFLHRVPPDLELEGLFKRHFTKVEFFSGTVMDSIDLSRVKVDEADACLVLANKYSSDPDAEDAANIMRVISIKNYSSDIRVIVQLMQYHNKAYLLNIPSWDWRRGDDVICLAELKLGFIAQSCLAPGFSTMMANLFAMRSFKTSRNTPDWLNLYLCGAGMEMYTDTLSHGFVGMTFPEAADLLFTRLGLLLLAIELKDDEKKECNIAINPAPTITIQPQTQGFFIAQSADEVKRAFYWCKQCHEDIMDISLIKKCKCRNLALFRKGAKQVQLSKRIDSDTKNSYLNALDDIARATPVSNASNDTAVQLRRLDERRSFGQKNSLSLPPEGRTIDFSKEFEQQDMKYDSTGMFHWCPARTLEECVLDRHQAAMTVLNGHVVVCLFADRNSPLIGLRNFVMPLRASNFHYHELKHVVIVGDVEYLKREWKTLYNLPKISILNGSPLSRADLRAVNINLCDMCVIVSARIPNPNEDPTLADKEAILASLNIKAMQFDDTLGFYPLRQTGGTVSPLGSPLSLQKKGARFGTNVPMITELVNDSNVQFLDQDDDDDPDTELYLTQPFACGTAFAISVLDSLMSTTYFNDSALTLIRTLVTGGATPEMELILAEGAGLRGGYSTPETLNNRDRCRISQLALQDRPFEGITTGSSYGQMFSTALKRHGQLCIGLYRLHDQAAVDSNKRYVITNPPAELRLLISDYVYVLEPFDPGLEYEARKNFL
Method for C. elegans Slo-1a: For transfection with plasmid DNA to express C. elegans Slo-1a (accession number AAL28102) CHO cells were passaged to 40% confluence before adding the transfection solution to the cell culture. The transfection solution included 300 μL OptiMEM (Life Technologies, Nr.: 31985), 2 μL (=6 μg) of plasmid DNA containing the C. elegans Slo-1a gene and 9 μL FugeneHD (Promega, Nr.: E2311), and was added to the cells prior to incubation for 48 hours at 37° C., 5% CO2. The transfection medium was exchanged for the selection medium which contains additional G418 (2 mg/ml, Invitrogen, Nr.: 10131) and the cells were seeded into 384 well plates (300 cells/well). After a few weeks, the remaining surviving cells were tested with a voltage sensitive dye (Membrane Potential Assay Kit, Molecular Devices Nr.: R8034) for K+ channel expression. Positive cell clones were purified by the limited dilution technique. For this the clone with the highest and most robust signal in the voltage sensitive dye assay was further subcloned (incubated) in 384 well plates (0.7 cells/well) to obtain clonal purity. This generated a final stable CHO cell line expressing the C. elegans Slo-1a.
Cell culture conditions Cells were cultured at 37° C. and 5% CO2 in MEMalpha with Gutamax I (Invitrogen, Nr.: 32571), supplemented with 10% (v/v) heat inactivated fetal bovine serum (Invitrogen, Nr.: 10500), G418 (1 mg/ml, Invitrogen, Nr.: 10131). Cells were detached using Accutase (Sigma, Nr.: A6964).
Membrane Potential Measurements
Laboratory compound testing was performed on 384-well microtiter plates (MTPs, Greiner, Nr.: 781092). 8000 cells/well were plated onto 384-well MTPs and cultured for 20 to 24 hours at 37° C. and 5% CO2. After removal of the cell culture medium, the cells were washed once with tyrode (150 mM NaCl, 0.3 mM KCl, 2 mM CaCl2, 1 m M MgCl2, 0.8 mM NaH2PO4, 5 mM Glucose, 28 mM Hepes, pH 7.4) and then loaded with the voltage sensitive dye of the Membrane Potential Assay Kit diluted in tyrode for 1 h at room temperature. After starting the measurement of fluorescence using a FLIPR Tetra (Molecular Devices, Exc. 510-545 nm, Emm. 565-625 nm), test compounds were added followed by the addition of KCl tyrode (final assay concentration: 70 mM KCl, 2 mM CaCl2, 1 mM MgCl2, 0.8 mM NaH2PO4, 5 mM Glucose, 28 mM Hepes, pH 7.4, including the voltage sensitive dye). The measurement was completed after 7 minutes.
EC50 values were calculated using a four-parameter plotting by the Scilligence ELN/Regmol Software Tool, Bioassay.

For the compound `CC(C)c1c(C(=O)NN2CCOc3ccccc32)nc2c(-c3cc(F)cc(F)c3F)nccn12` [Example 8.1, N-(2,3-Dihydro-4H-benzo[b][1,4]oxazin-4-yl)-3-isopropyl-8-(2,3,5-trifluorophenyl)-imidazo[1,2-a]pyrazine-2-carboxamide], the EC50 in experiment [1] is 0.1 to 1 µg/mL (≈ 0.214 to 2.14 µM); in experiment [2] it was 0.1 to 1 µg/mL (≈ 0.214 to 2.14 µM); on D. immitis Slo-1 it was more than 1000 nM; on C. elegans Slo-1a, more than 1000 nM; in experiment [3] (setting [4]), more than 1 µg/mL.
As to `CC(C)c1c(C(=O)NN2CCOc3ccccc32)sc2c(-c3cc(F)cc(F)c3F)cccc12` [Example 1.1, N-(2,3-dihydro-1,4-benzoxazin-4-yl)-3-isopropyl-7-(2,3,5-trifluorophenyl)benzo-thiophene-2-carboxamide], the half-maximal effective concentration (EC50) is less than 0.1 µg/mL in experiment [1]; less than 0.1 µg/mL in experiment [2]; more than 1000 nM on D. immitis Slo-1; less than 100 nM at C. elegans Slo-1a; 0.1 to 1 µg/mL (≈ 0.207 to 2.07 µM) in experiment [3] (setting [4]).
As for `Cc1cnc2c(C(C)C)c(C(=O)NN3CCOc4ccccc43)nn2c1-c1cc(F)cc(F)c1F` [Example 9.1, N-(2,3-Dihydro-4H-benzo[b][1,4]oxazin-4-yl)-3-isopropyl-6-methyl-7-(2,3,5-trifluorophenyl)-pyrazolo[1,5-a]pyrimidine-2-carboxamide], the concentration giving a half-maximal response (EC50) in experiment [1] is 0.1 to 1 µg/mL (≈ 0.208 to 2.08 µM); in experiment [2], less than 0.1 µg/mL; on D. immitis Slo-1, more than 1000 nM; at C. elegans Slo-1a, more than 1000 nM; in experiment [3] (setting [4]) it was more than 1 µg/mL.
For `Cc1nn2c(C(C)(C)O)c(C(=O)NN3CCOc4ccccc43)sc2c1-c1cc(F)cc(F)c1F` [Example 4.3, N-(2,3-Dihydro-1,4-benzoxazin-4-yl)-3-(2-hydroxypropan-2-yl)-6-methyl-7-(2,3,5-trifluorophenyl)pyrazolo [3,2-b][1,3]thiazole-2-carboxamide], the 50% effective concentration (EC50) in experiment [1] is less than 0.1 µg/mL; in experiment [2] it was less than 0.1 µg/mL; at D. immitis Slo-1 it was 100 to 1000 nM; on C. elegans Slo-1a it was less than 100 nM; in experiment [3] (setting [4]) it was 0.1 to 1 µg/mL (≈ 0.199 to 1.99 µM).
Turning to `CC(C)(O)c1c(C(=O)NN2CCOc3ccccc32)sc2c(-c3cc(F)cc(F)c3F)c(F)cnc12` [Example 6.1, N-(2,3-Dihydro-4H-benzo[b][1,4]oxazin-4-yl)-6-fluoro-3-(2-hydroxypropan-2-yl)-7-(2,3,5-trifluorophenyl)thieno[3,2-b]pyridine-2-carboxamide], the half-maximal effective concentration (EC50) is less than 0.1 µg/mL in experiment [1]; less than 0.1 µg/mL in experiment [2]; less than 100 nM on D. immitis Slo-1; less than 100 nM on C. elegans Slo-1a; less than 0.1 µg/mL in experiment [3].
`CC(C)c1c(C(=O)NN2CCOc3ccccc32)cnc2c1cnn2-c1cc(F)cc(F)c1F` [Example 10.1, N-(2,3-Dihydro-4H-benzo[b][1,4]oxazin-4-yl)-4-isopropyl-1-(2,3,5-trifluorophenyl)-1H-pyrazolo[3,4-b]pyridine-5-carboxamide]: the concentration giving a half-maximal response (EC50) in experiment [1] is less than 0.1 µg/mL; in experiment [2] it was 0.1 to 1 µg/mL (≈ 0.214 to 2.14 µM); at D. immitis Slo-1, more than 1000 nM; on C. elegans Slo-1a it was 100 to 1000 nM; in experiment [3] (setting [4]), more than 1 µg/mL.
On to `Cc1nn2c(C(C)C)c(C(=O)NN3CCOc4ccccc43)sc2c1-c1cc(F)cc(F)c1F` [Example 4.1, N-(2,3-Dihydro-1,4-benzoxazin-4-yl)-3-isopropyl-6-methyl-7-(2,3,5-trifluorophenyl)-pyrazolo[5,1-b]thiazole-2-carboxamide], for which the 50% effective concentration (EC50) in experiment [1] was less than 0.1 µg/mL; in experiment [2], 0.1 to 1 µg/mL (≈ 0.206 to 2.06 µM); on D. immitis Slo-1, more than 1000 nM; on C. elegans Slo-1a, less than 100 nM; in experiment [3] (setting [4]), more than 1 µg/mL.
The like results for `CC(C)c1c(C(=O)NN2CCOc3ccccc32)nc2c(-c3cc(F)cc(F)c3F)cccn12` [Example 7.1, N-(2,3-dihydro-4H-benzo[b][1,4]oxazin-4-yl)-3-isopropyl-8-(2,3,5-trifluoro-phenyl)imidazo[1,2-a]pyridine-2-carboxamide] were, in that order, 0.1 to 1 µg/mL (≈ 0.214 to 2.14 µM), 0.1 to 1 µg/mL (≈ 0.214 to 2.14 µM), more than 1000 nM, more than 1000 nM and more than 1 µg/mL.
For `CC(C)c1c(C(=O)NN2CCOc3ccccc32)ccn2c(-c3c(F)ccc(F)c3F)nnc12` [Example 15.1, N-(2,3-Dihydro-1,4-benzoxazin-4-yl)-8-isopropyl-3-(2,3,6-trifluorophenyl)-[1,2,4] triazolo [4,3-a]pyridine-7-carboxamide] the same measures were more than 1 µg/mL, 0.1 to 1 µg/mL (≈ 0.214 to 2.14 µM), more than 1000 nM, more than 1000 nM and more than 1 µg/mL.
On to `O=C(NN1CCOc2ccccc21)c1sc2c(-c3cc(F)cc(F)c3F)c(F)cnc2c1N1CCOCC1` [Example 6.4, N-(2,3-Dihydro-4H-benzo[b][1,4]oxazin-4-yl)-6-fluoro-3-morpholino-7-(2,3,5-trifluorophenyl)thieno[3,2-b]pyridine-2-carboxamide], for which the EC50 in experiment [1] was less than 0.1 µg/mL; in experiment [2], less than 0.1 µg/mL; at D. immitis Slo-1, 100 to 1000 nM; at C. elegans Slo-1a it was less than 100 nM; in experiment [3] (setting [4]) it was 0.1 to 1 µg/mL (≈ 0.184 to 1.84 µM).
Turning to `Cc1nn2c(N3CCOCC3)c(C(=O)NN3CCOc4ccccc43)sc2c1-c1cc(F)cc(F)c1F` [Example 4.2, N-(2,3-Dihydro-4H-benzo[b][1,4]oxazin-4-yl)-6-methyl-3-morpholino-7-(2,3,5-trifluorophenyl)pyrazolo[5,1-b]thiazole-2-carboxamide], the EC50 in experiment [1] was less than 0.1 µg/mL; in experiment [2], less than 0.1 µg/mL; on D. immitis Slo-1 it was more than 1000 nM; on C. elegans Slo-1a, less than 100 nM; in experiment [3] (setting [4]), 0.1 to 1 µg/mL (≈ 0.189 to 1.89 µM).
On to `CC(C)c1c(C(=O)NN2CCOc3ccccc32)ccc2c1nnn2-c1cc(F)cc(F)c1F` [Example 16.1, N-(2,3-Dihydro-4H-benzo[b][1,4]oxazin-4-yl)-4-isopropyl-1-(2,3,5-trifluorophenyl)-1H-benzo[d][1,2,3]triazole-5-carboxamide], for which the EC50 in experiment [1] was more than 1 µg/mL; in experiment [2], more than 1 µg/mL; on D. immitis Slo-1, more than 1000 nM; on C. elegans Slo-1a, more than 1000 nM; in experiment [3] (setting [4]), more than 1 µg/mL.
